Reference: patent US6613718B2, “Aryl ether derivatives and processes for their preparation and herbicidal and desiccant compositions containing them” (Ishihara Sangyo Kaisha, Ltd., priority 2001, dated 2003)

What was measured:
Assay type in all cases: in vivo
Conditions in all cases: 14 days after application
[1] = test system: barnyardgrass (Echinochloa crus-galli, ECHCG); experiment: Post-emerge greenhouse herbicide activity screening, phytotoxicity rating
From the text: (§1) A standard greenhouse herbicide activity screening system was used to evaluate the herbicidal efficacy and crop safety of these test compounds. Seven broadleaf weed species including redroot pigweed (Amaranthus retroflexus, AMARE), velvetleaf (Abutilon theophrasti, ABUTH), sicklepod (Cassia obtusifolia, CASOB), ivyleaf morningglory (Ipomoea hederacea, IPOHE), lambsquarters (Chenopodium album, CHEAL), common ragweed (Ambrosia artemisiifolia L., AMBEL), and cocklebur (Xanthium strumarium, XANST) were used as test species. Four grass weed species including green foxtail (Setaria viridis, SETVI), barnyardgrass (Echinochloa crus-galli, ECHCG), johnsongrass (Sorghum halepense, SORHA), and large crabgrass (Digitaria sanguinalis, DIGSA) were also used. In addition, three crop species, field corn (Zea mays L., var. Dekalb 535, CORN), soybean (Glycine max L., var. Pella 86, SOY), and upland rice (Oryza sp., var.Tebonnet, RICE) were included.
(§2) All plants were grown in 10 cm square plastic pots which were filled with a sandy loam soil mix. For pre-emerge tests, seeds were planted one day prior to application of the test compounds. For post-emerge tests, seeds were planted 8-21 days prior to the test to allow emergence and good foliage development prior to application of the test substances. At the time of the post-emerge application, plants of all species were usually at the 2-3 leaf stage of development.
(§3) All test compounds were dissolved in acetone and applied to the test units in a volume of 187 1/ha. Test materials were applied at rates ranging from 15 g ai/ha to 1000 g ai/ha using a track sprayer equipped with a TJ8001E even flow flat fan spray nozzle. Plants were arranged on a shelf so that the top of the canopy (post-emerge) or top of the soil surface (pre-emerge) was 40-45 cm below the nozzle. Pressurized air was used to force the test solution through the nozzle as it was mechanically advanced (via electrically driven chain drive) over the top of all test plants/pots. This application simulates a typical commercial field herbicide application.
(§4) In the post-emerge test, a commercial non-ionic surfactant was also included (0.25% v/v) to enhance wetting of the leaf surfaces of target plants. Immediately after application, test units of the pre-emerge applications were watered at the soil surface to incorporate the test materials. Subsequently, these test units were bottom-watered. Post-emerge test units were always bottom-watered.
(§5) At 14 days after application of the test materials, phytotoxicity ratings were recorded. A rating scale of 0-100 was used as previously described in Research Methods in Weed Science, 2nd edition, B. Truelove, Ed., Southern Weed Science Society, Auburn University, Auburn, Ala., 1977. Briefly, “0” corresponds to no damage and “100” corresponds to complete death of all plants in the test unit. This scale was used both to determine efficacy against weed species and damage to crop species. Herbicide activity data for various compounds of this invention, which are shown by compound No. in Tables I-VI, are shown in Tables VIII-IX.

[2] = test system: ivyleaf morningglory (Ipomoea hederacea, IPOHE); experiment: as above
From the text: as §1, §2, §3, §4, §5

[3] = test system: redroot pigweed (Amaranthus retroflexus, AMARE); experiment: as above
From the text: as §1, §2, §3, §4, §5

[4] = test system: sicklepod (Cassia obtusifolia, CASOB); experiment: as above
From the text: as §1, §2, §3, §4, §5

[5] = test system: johnsongrass (Sorghum halepense, SORHA); experiment: as above
From the text: as §1, §2, §3, §4, §5

[6] = test system: common ragweed (Ambrosia artemisiifolia L., AMBEL); experiment: as above
From the text: as §1, §2, §3, §4, §5

[7] = test system: velvetleaf (Abutilon theophrasti, ABUTH); experiment: as above
From the text: as §1, §2, §3, §4, §5

[8] = test system: lambsquarters (Chenopodium album, CHEAL); experiment: as above
From the text: as §1, §2, §3, §4, §5

[9] = test system: large crabgrass (Digitaria sanguinalis, DIGSA); experiment: as above
From the text: as §1, §2, §3, §4, §5

[10] = test system: green foxtail (Setaria viridis, SETVI); experiment: as above
From the text: as §1, §2, §3, §4, §5

[11] = test system: soybean (Glycine max L., var. Pella 86, SOY); experiment: Pre-emerge greenhouse screening, crop safety (phytotoxicity rating)
From the text: as §1, §2, §3, §4, §5

[12] = test system: upland rice (Oryza sp., var.Tebonnet, RICE); experiment: as above
From the text: as §1, §2, §3, §4, §5

[13] = test system: field corn (Zea mays L., var. Dekalb 535, CORN); experiment: as above
From the text: as §1, §2, §3, §4, §5

[14] = test system: soybean (Glycine max L., var. Pella 86, SOY); experiment: Post-emerge greenhouse screening, crop safety (phytotoxicity rating)
From the text: as §1, §2, §3, §4, §5

[15] = test system: upland rice (Oryza sp., var.Tebonnet, RICE); experiment: as above
From the text: as §1, §2, §3, §4, §5

[16] = test system: barnyardgrass (Echinochloa crus-galli, ECHCG); experiment: Pre-emerge greenhouse herbicide activity screening, phytotoxicity rating
From the text: as §1, §2, §3, §4, §5

[17] = test system: ivyleaf morningglory (Ipomoea hederacea, IPOHE); experiment: as above
From the text: as §1, §2, §3, §4, §5

[18] = test system: redroot pigweed (Amaranthus retroflexus, AMARE); experiment: as above
From the text: as §1, §2, §3, §4, §5

[19] = test system: sicklepod (Cassia obtusifolia, CASOB); experiment: as above
From the text: as §1, §2, §3, §4, §5

[20] = test system: johnsongrass (Sorghum halepense, SORHA); experiment: as above
From the text: as §1, §2, §3, §4, §5

[21] = test system: common ragweed (Ambrosia artemisiifolia L., AMBEL); experiment: as above
From the text: as §1, §2, §3, §4, §5

[22] = test system: velvetleaf (Abutilon theophrasti, ABUTH); experiment: as above
From the text: as §1, §2, §3, §4, §5

[23] = test system: lambsquarters (Chenopodium album, CHEAL); experiment: as above
From the text: as §1, §2, §3, §4, §5

[24] = test system: large crabgrass (Digitaria sanguinalis, DIGSA); experiment: as above
From the text: as §1, §2, §3, §4, §5

[25] = test system: green foxtail (Setaria viridis, SETVI); experiment: as above
From the text: as §1, §2, §3, §4, §5

[26] = test system: field corn (Zea mays L., var. Dekalb 535, CORN); experiment: Post-emerge greenhouse screening, crop safety / corn selectivity (phytotoxicity rating)
From the text: as §1, §2, §3, §4, §5

Cn1c(C(F)(F)F)cc(=O)n(-c2cc(Oc3ncccc3[N+](=O)[O-])c(Cl)cc2F)c1=S [Compound 1-9]
ECHCG phytotoxicity rating (0-100 scale) ([1]; 125 g ai/ha): 50
ECHCG phytotoxicity rating (0-100 scale) ([1]; 250 g ai/ha): 65
IPOHE phytotoxicity rating (0-100 scale) ([2]; 125 g ai/ha): 100
IPOHE phytotoxicity rating (0-100 scale) ([2]; 250 g ai/ha): 100
AMARE phytotoxicity rating (0-100 scale) ([3]; 125 g ai/ha): 100
AMARE phytotoxicity rating (0-100 scale) ([3]; 250 g ai/ha): 100
CASOB phytotoxicity rating (0-100 scale) ([4]; 125 g ai/ha): 50
CASOB phytotoxicity rating (0-100 scale) ([4]; 250 g ai/ha): 65
SORHA phytotoxicity rating (0-100 scale) ([5]; 125 g ai/ha): 50
SORHA phytotoxicity rating (0-100 scale) ([5]; 250 g ai/ha): 50
AMBEL phytotoxicity rating (0-100 scale) ([6]; 125 g ai/ha): 70
AMBEL phytotoxicity rating (0-100 scale) ([6]; 250 g ai/ha): 70
ABUTH phytotoxicity rating (0-100 scale) ([7]; 125 g ai/ha): 100
ABUTH phytotoxicity rating (0-100 scale) ([7]; 250 g ai/ha): 100
CHEAL phytotoxicity rating (0-100 scale) ([8]; 125 g ai/ha): 100
CHEAL phytotoxicity rating (0-100 scale) ([8]; 250 g ai/ha): 100
DIGSA phytotoxicity rating (0-100 scale) ([9]; 125 g ai/ha): 50
DIGSA phytotoxicity rating (0-100 scale) ([9]; 250 g ai/ha): 60
SETVI phytotoxicity rating (0-100 scale) ([10]; 125 g ai/ha): 60
SETVI phytotoxicity rating (0-100 scale) ([10]; 250 g ai/ha): 70
SOY crop damage, phytotoxicity rating (0-100 scale) ([11]; 125 g ai/ha): 50
SOY crop damage, phytotoxicity rating (0-100 scale) ([11]; 250 g ai/ha): 50
RICE crop damage, phytotoxicity rating (0-100 scale) ([12]; 125 g ai/ha): 35
RICE crop damage, phytotoxicity rating (0-100 scale) ([12]; 250 g ai/ha): 35
CORN crop damage, phytotoxicity rating (0-100 scale) ([13]; 125 g ai/ha): 8
CORN crop damage, phytotoxicity rating (0-100 scale) ([13]; 250 g ai/ha): 8
SOY crop damage, phytotoxicity rating (0-100 scale) ([14]; 125 g ai/ha): 55
SOY crop damage, phytotoxicity rating (0-100 scale) ([14]; 250 g ai/ha): 80
RICE crop damage, phytotoxicity rating (0-100 scale) ([15]; 125 g ai/ha): 0
RICE crop damage, phytotoxicity rating (0-100 scale) ([15]; 250 g ai/ha): 0
ECHCG phytotoxicity rating (0-100 scale) ([16]; 125 g ai/ha): 95
ECHCG phytotoxicity rating (0-100 scale) ([16]; 250 g ai/ha): 99
IPOHE phytotoxicity rating (0-100 scale) ([17]; 125 g ai/ha): 100
IPOHE phytotoxicity rating (0-100 scale) ([17]; 250 g ai/ha): 100
AMARE phytotoxicity rating (0-100 scale) ([18]; 125 g ai/ha): 100
AMARE phytotoxicity rating (0-100 scale) ([18]; 250 g ai/ha): 100
CASOB phytotoxicity rating (0-100 scale) ([19]; 125 g ai/ha): 70
CASOB phytotoxicity rating (0-100 scale) ([19]; 250 g ai/ha): 99
SORHA phytotoxicity rating (0-100 scale) ([20]; 125 g ai/ha): 95
SORHA phytotoxicity rating (0-100 scale) ([20]; 250 g ai/ha): 99
AMBEL phytotoxicity rating (0-100 scale) ([21]; 125 g ai/ha): 99
AMBEL phytotoxicity rating (0-100 scale) ([21]; 250 g ai/ha): 100
ABUTH phytotoxicity rating (0-100 scale) ([22]; 125 g ai/ha): 100
ABUTH phytotoxicity rating (0-100 scale) ([22]; 250 g ai/ha): 100
CHEAL phytotoxicity rating (0-100 scale) ([23]; 125 g ai/ha): 100
CHEAL phytotoxicity rating (0-100 scale) ([23]; 250 g ai/ha): 100
DIGSA phytotoxicity rating (0-100 scale) ([24]; 125 g ai/ha): 98
DIGSA phytotoxicity rating (0-100 scale) ([24]; 250 g ai/ha): 99
SETVI phytotoxicity rating (0-100 scale) ([25]; 125 g ai/ha): 100
SETVI phytotoxicity rating (0-100 scale) ([25]; 250 g ai/ha): 100
CORN crop damage, phytotoxicity rating (0-100 scale) ([26]; 125 g ai/ha): 0
CORN crop damage, phytotoxicity rating (0-100 scale) ([26]; 250 g ai/ha): 3
